# Assay results as given in US8192962B2, “Processes for detecting toxic substances” (Daikin Industries, Ltd., priority 2001, dated 2012).
# System: Mitochondria-located protein genes
# Assay: DNA chip mRNA expression in yeast, mitochondria-located protein genes (Table 2)
# Assay type: cell-based, Saccharomyces cerevisiae S288C
# Conditions: cells incubated two hours with the chemical substance
# Outline: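 Value is the scanned fluorescence intensity ratio of exposed versus chemical-free cells. Log-phase S288C yeast in YPD at 25° C. received one toxic substance for two hours, dosed to slow growth without killing; Cy3/Cy5-labeled cDNA from oligo-dT-purified mRNA was hybridized to a whole-genome chip at 65° C.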
structure (smiles),measurement,setting,value
"C=CC=O [(14), acrolein]",The level of expressed mRNA in the presence of chemical substance/The level of expressed mRNA in the absence of chemical substance,yeast gene YJR121W,0.7
same,The level of expressed mRNA in the presence of chemical substance/The level of expressed mRNA in the absence of chemical substance,yeast gene YKL003C,2.0
same,The level of expressed mRNA in the presence of chemical substance/The level of expressed mRNA in the absence of chemical substance,yeast gene YKL016C,1.6
same,The level of expressed mRNA in the presence of chemical substance/The level of expressed mRNA in the absence of chemical substance,yeast gene YKL141W,1.4
same,The level of expressed mRNA in the presence of chemical substance/The level of expressed mRNA in the absence of chemical substance,yeast gene YKL142W,2.3
same,The level of expressed mRNA in the presence of chemical substance/The level of expressed mRNA in the absence of chemical substance,yeast gene YKL148C,0.8
same,The level of expressed mRNA in the presence of chemical substance/The level of expressed mRNA in the absence of chemical substance,yeast gene YKL170W,1.3
same,The level of expressed mRNA in the presence of chemical substance/The level of expressed mRNA in the absence of chemical substance,yeast gene YKL194C,1.4
same,The level of expressed mRNA in the presence of chemical substance/The level of expressed mRNA in the absence of chemical substance,yeast gene YKR066C,1.5
same,The level of expressed mRNA in the presence of chemical substance/The level of expressed mRNA in the absence of chemical substance,yeast gene YLL041C,1.2
same,The level of expressed mRNA in the presence of chemical substance/The level of expressed mRNA in the absence of chemical substance,yeast gene YLR038C,1.6
same,The level of expressed mRNA in the presence of chemical substance/The level of expressed mRNA in the absence of chemical substance,yeast gene YLR259C,0.8
same,The level of expressed mRNA in the presence of chemical substance/The level of expressed mRNA in the absence of chemical substance,yeast gene YLR295C,1.2
same,The level of expressed mRNA in the presence of chemical substance/The level of expressed mRNA in the absence of chemical substance,yeast gene YLR304C,0.7
same,The level of expressed mRNA in the presence of chemical substance/The level of expressed mRNA in the absence of chemical substance,yeast gene YLR348C,1.0
same,The level of expressed mRNA in the presence of chemical substance/The level of expressed mRNA in the absence of chemical substance,yeast gene YLR395C,1.7
same,The level of expressed mRNA in the presence of chemical substance/The level of expressed mRNA in the absence of chemical substance,yeast gene YML054C,2.1
same,The level of expressed mRNA in the presence of chemical substance/The level of expressed mRNA in the absence of chemical substance,yeast gene YML120C,0.8
same,The level of expressed mRNA in the presence of chemical substance/The level of expressed mRNA in the absence of chemical substance,yeast gene YML129C,1.4
same,The level of expressed mRNA in the presence of chemical substance/The level of expressed mRNA in the absence of chemical substance,yeast gene YMR023C,1.6
same,The level of expressed mRNA in the presence of chemical substance/The level of expressed mRNA in the absence of chemical substance,yeast gene YMR035W,1.3
same,The level of expressed mRNA in the presence of chemical substance/The level of expressed mRNA in the absence of chemical substance,yeast gene YMR083W,0.8
same,The level of expressed mRNA in the presence of chemical substance/The level of expressed mRNA in the absence of chemical substance,yeast gene YMR089C,0.9
same,The level of expressed mRNA in the presence of chemical substance/The level of expressed mRNA in the absence of chemical substance,yeast gene YMR152W,1.1
same,The level of expressed mRNA in the presence of chemical substance/The level of expressed mRNA in the absence of chemical substance,yeast gene YMR203W,0.7
same,The level of expressed mRNA in the presence of chemical substance/The level of expressed mRNA in the absence of chemical substance,yeast gene YMR267W,1.0
same,The level of expressed mRNA in the presence of chemical substance/The level of expressed mRNA in the absence of chemical substance,yeast gene YNL055C,0.9
same,The level of expressed mRNA in the presence of chemical substance/The level of expressed mRNA in the absence of chemical substance,yeast gene YNL071W,0.8
same,The level of expressed mRNA in the presence of chemical substance/The level of expressed mRNA in the absence of chemical substance,yeast gene YNL073W,0.7
same,The level of expressed mRNA in the presence of chemical substance/The level of expressed mRNA in the absence of chemical substance,yeast gene YNL104C,0.9
same,The level of expressed mRNA in the presence of chemical substance/The level of expressed mRNA in the absence of chemical substance,yeast gene YNL256W,0.7
same,The level of expressed mRNA in the presence of chemical substance/The level of expressed mRNA in the absence of chemical substance,yeast gene YOL096C,1.4
same,The level of expressed mRNA in the presence of chemical substance/The level of expressed mRNA in the absence of chemical substance,yeast gene YOR020C,1.6
same,The level of expressed mRNA in the presence of chemical substance/The level of expressed mRNA in the absence of chemical substance,yeast gene YOR037W,1.0
same,The level of expressed mRNA in the presence of chemical substance/The level of expressed mRNA in the absence of chemical substance,yeast gene YOR100C,1.4
same,The level of expressed mRNA in the presence of chemical substance/The level of expressed mRNA in the absence of chemical substance,yeast gene YOR130C,1.3
same,The level of expressed mRNA in the presence of chemical substance/The level of expressed mRNA in the absence of chemical substance,yeast gene YOR142W,0.8
same,The level of expressed mRNA in the presence of chemical substance/The level of expressed mRNA in the absence of chemical substance,yeast gene YOR150W,1.6
same,The level of expressed mRNA in the presence of chemical substance/The level of expressed mRNA in the absence of chemical substance,yeast gene YOR176W,0.8
same,The level of expressed mRNA in the presence of chemical substance/The level of expressed mRNA in the absence of chemical substance,yeast gene YOR187W,0.6
same,The level of expressed mRNA in the presence of chemical substance/The level of expressed mRNA in the absence of chemical substance,yeast gene YOR316C,1.0
same,The level of expressed mRNA in the presence of chemical substance/The level of expressed mRNA in the absence of chemical substance,yeast gene YPL040C,1.1
same,The level of expressed mRNA in the presence of chemical substance/The level of expressed mRNA in the absence of chemical substance,yeast gene YPL134C,1.4
same,The level of expressed mRNA in the presence of chemical substance/The level of expressed mRNA in the absence of chemical substance,yeast gene YPL135W,1.1
same,The level of expressed mRNA in the presence of chemical substance/The level of expressed mRNA in the absence of chemical substance,yeast gene YPL215W,1.2
same,The level of expressed mRNA in the presence of chemical substance/The level of expressed mRNA in the absence of chemical substance,yeast gene YPL262W,1.2
same,The level of expressed mRNA in the presence of chemical substance/The level of expressed mRNA in the absence of chemical substance,yeast gene YPR024W,0.7
same,The level of expressed mRNA in the presence of chemical substance/The level of expressed mRNA in the absence of chemical substance,yeast gene YPR037C,1.6
same,The level of expressed mRNA in the presence of chemical substance/The level of expressed mRNA in the absence of chemical substance,yeast gene YPR047W,1.0
same,The level of expressed mRNA in the presence of chemical substance/The level of expressed mRNA in the absence of chemical substance,yeast gene YPR134W,1.5
